{"source": "paper PMC7143284", "about": "“A Phenotarget Approach for Identifying an Alkaloid Interacting with the Tuberculosis Protein Rv1466” (Marine Drugs, 2020)", "target": "Rv1466 (Mycobacterium tuberculosis, UniProt O53157)", "sequence (O53157 1-115 limits assumed)": "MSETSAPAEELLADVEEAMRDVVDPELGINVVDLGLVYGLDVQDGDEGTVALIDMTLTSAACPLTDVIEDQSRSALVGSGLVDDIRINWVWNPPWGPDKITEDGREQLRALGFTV", "experiment": "[…]; bound species is […] Da (half of the disulfide dimer)", "assay_type": "binding", "data": [{"smiles": "COc1ccc(-c2nc(N)n(C)c2SSc2c(-c3ccc(OC)cc3)nc(N)n2C)cc1", "note": "[polycarpine]", "values": [{"measurement": "Kd", "value": "5.3 ± 0.4", "unit": "µM"}]}]}
